The experiment concerns the target T1, human CXCR4 receptor (Homo sapiens, UniProt P61073).
T1 construct: expressed in transfected cells
In words: Measurement of intracellular Ca+2 responses (FLIPR), antagonism of the SDF-1α response. It is filed as cell-based. Conditions: for IC50: HEK-Gqi5 cells stably expressing human CXCR4, Fluo-4 FLIPR, antagonism of SDF-1α 1.9 nM (EC65); for CXCR4 (% Inh): percent antagonism of SDF-1α 1.9 nM (EC65) response, HEK-Gqi5 human CXCR4 cells, value in brackets. The method in brief:
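HEK-Gqi5 cells stably expressing CXCR4, Fluo-4-loaded (2 uM, 40 min, 37 °C), read on FLIPR. Compound (2.44-40,000 nM) added first for agonism, then SDF-1α at 1.9 nM final (EC65); IC50 and percent antagonism from second-addition calcium signal.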

As usually defined, the IC50 is the concentration needed to halve the response being measured. A low value points to greater potency.

T1 sequence (P61073 whole entry): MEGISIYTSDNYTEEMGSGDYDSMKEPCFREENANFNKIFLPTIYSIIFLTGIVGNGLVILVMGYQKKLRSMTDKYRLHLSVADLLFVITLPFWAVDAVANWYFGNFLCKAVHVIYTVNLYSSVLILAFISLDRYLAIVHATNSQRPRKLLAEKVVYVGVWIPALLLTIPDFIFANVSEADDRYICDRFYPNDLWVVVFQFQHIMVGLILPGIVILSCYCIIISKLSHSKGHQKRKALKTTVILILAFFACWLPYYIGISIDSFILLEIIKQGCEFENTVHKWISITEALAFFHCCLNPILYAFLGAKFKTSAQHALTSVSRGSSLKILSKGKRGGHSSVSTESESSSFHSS

With `COc1cc2nc(NCc3cn(C)cn3)nc(NC3CCN(Cc4c(OCCN(C)C)cccc4N(C)C)CC3)c2cc1OC` [Compound 215, N˜4˜-(1-{2-(Dimethylamino)-6-[2-(dimethylamino)ethoxy]benzyl}piperidin-4-yl)-6,7-dimethoxy-N˜2˜-[(1-methyl-1H-imidazol-4-yl)methyl]quinazoline-2,4-diamine], the “CXCR4 (% Inh)” value came to 99%. For the setting “values in nM”, inhibition was half-maximal at 73 nM (IC50).
For `COc1cc2nc(NCc3cc[nH]n3)nc(NC3CCN(Cc4c(OCCN(C)C)cccc4N(C)C)CC3)c2cc1OC` [Compound 216, N˜4˜-(1-{2-(Dimethylamino)-6-[2-(dimethylamino)ethoxy]benzyl}piperidin-4-yl)-6,7-dimethoxy-N˜2˜-(1H-pyrazol-3-ylmethyl)quinazoline-2,4-diamine] the same measures were 100% and 32 nM.
For `COc1cccc(N(C)C)c1CN1CCC(Nc2nc(N3CCCN(C)CC3)nc3ccccc23)CC1` [Compound 217, N-(1-(2-(Dimethylamino)-6-methoxybenzyl)piperidin-4-yl)-2-(4-methyl-1,4-diazepan-1-yl)quinazolin-4-amine], the “CXCR4 (% Inh)” value was found to be 100%. Inhibition (values given in μM) was half-maximal at 2100 nM (IC50).
For `COc1cccc(N(C)C)c1CN1CCC(Nc2nc(N3CCN(C)CC3)nc3ccccc23)CC1` [Compound 218, N-(1-(2-(Dimethylamino)-6-methoxybenzyl)piperidin-4-yl)-2-(4-methyl-piperazin-1-yl)quinazolin-4-amine], in that order: 84% and 1200 nM.
Regarding `COc1cc2nc(NCCCN(C)C)nc(NC3CCN(Cc4ccccc4N(C)C(C)C)CC3)c2cc1OC` [Compound 224, N2-(3-(Dimethylamino)propyl)-N4-(1-(2-(isopropyl(methyl)amino)benzyl)piperidin-4-yl)-6,7-dimethoxyquinazoline-2,4-diamine], the “CXCR4 (% Inh)” value turned out to be 92%. Also, where the note is “values in nM”, the IC50 was found to be 695 nM.
In the case of `COc1cccc(N(C)C)c1CN1CCC(Nc2nc(NCCCNC(=O)OC(C)(C)C)nc3ccccc23)CC1` [Compound 225, tert-Butyl-3-(4-(1-(2-(dimethylamino)-6-methoxybenzyl)piperidin-4-ylamino)quinazolin-2-ylamino)propylcarbamate], the “CXCR4 (% Inh)” value amounted to 88%. The IC50 (values in nM) was determined as 614 nM.
As for `COc1cc2nc(NCCCN)nc(NC3CCN(Cc4c(OC)cccc4N(C)C)CC3)c2cc1OC` [Compound 227], the “CXCR4 (% Inh)” value is 94%. The same molecule came in with an IC50 (values in nM) of 105 nM.
For `CN(C)CCCNc1nc(NC2CCN(Cc3c(OCCN(C)C)cccc3N(C)C)CC2)c2ccccc2n1` [Compound 228, N4-(1-(2-(Dimethylamino)-6-(2-(dimethylamino)ethoxy)benzyl)piperidin-4-yl)-N2-(3-(dimethylamino)propyl)quinazoline-2,4-diamine] the same measures were 98% and 71 nM.
With `COc1cc2nc(NCCN(C)C)nc(NC3CCN(Cc4c(OCCN(C)C)cccc4N(C)C)CC3)c2cc1OC` [Compound 229, N4-(1-(2-(Dimethylamino)-6-(2-(dimethylamino)ethoxy)benzyl)piperidin-4-yl)-N2-(2-(dimethylamino)ethyl)-6,7-dimethoxyquinazoline-2,4-diamine], the “CXCR4 (% Inh)” value is on record as 96%. Moreover, the half-maximal inhibitory concentration (IC50) (values in nM) worked out at 41 nM.
For `COc1cc2nc(NCC3CNC3)nc(NC3CCN(Cc4c(OCCN(C)C)cccc4N(C)C)CC3)c2cc1OC` [Compound 230, N2-(Azetidin-3-ylmethyl)-N4-(1-(2-(dimethylamino)-6-(2-(dimethylamino)ethoxy)benzyl)piperidin-4-yl)-6,7-dimethoxyquinazoline-2,4-diamine] the same measures were 96% and 56 nM.
Regarding `COc1cc2nc(SCCN(C)C)nc(NC3CCN(Cc4c(OCCN(C)C)cccc4N(C)C)CC3)c2cc1OC` [Compound 231, N-(1-(2-(Dimethylamino)-6-(2-(dimethylamino)ethoxy)benzyl)piperidin-4-yl)-2-(2-(dimethylamino)ethylthio)-6,7-dimethoxyquinazolin-4-amine], the “CXCR4 (% Inh)” value amounted to 96%. This molecule yielded an IC50 (values in nM) of 131 nM.

(Values after patent US8193203B2, “Bicyclic compounds having activity at the CXCR4 receptor” (Allergan, Inc., priority 2008, dated 2012).)
